# Patent US12534429B2, “Heterodimers of glutamic acid” (Molecular Insight Pharmaceuticals, Inc., priority 2006, dated 2026)
# Where two headings read alike, the source gives them in different places.
# Tests used:
# PSMA (LnCap cells) = PSMA (LnCap cells) (Homo sapiens, UniProt Q04609); assay: Scatchard analysis in PSMA cellular binding assay (nonradiolabeled DCIT with I-131 DCIT)
# Method: FIG. 6 is Scatchard Analysis in PSMA Cellular Binding Assay with cold 2-{3-[1-Carboxy-2-(4-hydroxy-phenyl)-ethyl]-ureido}-pentanedioic acid (DCT).
# (§1) (ii) In vitro dose screening. […] Binding constants were determined by incubating LnCap cells with various amounts of nonradiolabeled DCIT in the presence of a constant amount of I-131 DCIT and dividing by the specific activity of each solution to determine the number of fmoles compound bound (FIG. 6).
# LnCap cells [1] = assay: Direct binding of radiolabeled DCIT to PSMA-positive LnCap cells; parameters: species or system human; settings: counts displaceable by nonradiolabeled compound or PMPA
# Method: (§2) The histograms show the mean f SEM, each experiment was performed in duplicate.
# (§3) In vitro cold screening assays verses I-131 DCIT. LNCaP and PC3 human prostate cancer cells were obtained from American Type Culture Collection, Rockville, MD LNCaP cells were maintained in RPMI-1640 medium supplemented with 10% fetal bovine serum (FBS). PC3 cells were grown in F12K medium supplemented with 10% FBS. Binding of the radiolabeled compound and competition with cold derivatives to LNCaP and PC-3 cells was performed according to the methods of Tang et al. (Tang, H.; Brown, M.; Ye, Y.; Huang, G.; Zhang, Y.; Wang, Y.; Zhai, H.; Chen, X.; Shen, T. Y.; Tenniswood, M., Prostate targeting ligands based on N-acetylated alpha-linked acidic dipeptidase, Biochem. Biophys. Res. Commun. 2003, 307, 8-14) with appropriate modifications. […] Total binding was determined by incubating I-131 DCIT without test compound. […] Cell binding of I-131 DCIT was determined by counting the cell pellet in an automated gamma counter. […]
# as §1
# PC3 cells = assay: Direct binding of radiolabeled DCIT to PSMA-negative PC3 cells; parameters: species or system human
# Method: as §2, §3, §1
# [2] = Stability of iodine-131 labeled compounds in solution (HPLC); assay type: physicochemical
# Method: FIG. 4A-4D are radio-HPLC chromatograms of I-131 MIP 1072 purified; at 3 days in A) DMSO. B) 3% genstisate-6% Ascorbate/Ascorbic acid, C) PBS, pH=7.2, D) 10% Ethanol in Saline at 37° C.
# (§4) The stability of the radiolabeled compound in solution was determined as a function of time. Specifically, after radiolabeling and isolation, the product was stored at room temperature for 48 h after which HPLC analysis was performed to check for degree of label retention, as well as potential product degradation. The reformation of NaI and the presence of the reduced iodates was analyzed.
# as §4, with “37° C.” for “room temperature”, “3 days” for “48 h”
# PSMA on LNCaP cells [3] = biological target: T1, PSMA on LNCaP cells (Homo sapiens, UniProt Q04609); assay: In vitro cell binding: competition with I-131 DCIT for binding to PSMA on LNCaP cells
# T1 construct: LNCaP human prostate cancer cells were obtained from American Type Culture Collection; host or cells: LNCaP human prostate cancer cells
# T1 sequence (Q04609 whole entry): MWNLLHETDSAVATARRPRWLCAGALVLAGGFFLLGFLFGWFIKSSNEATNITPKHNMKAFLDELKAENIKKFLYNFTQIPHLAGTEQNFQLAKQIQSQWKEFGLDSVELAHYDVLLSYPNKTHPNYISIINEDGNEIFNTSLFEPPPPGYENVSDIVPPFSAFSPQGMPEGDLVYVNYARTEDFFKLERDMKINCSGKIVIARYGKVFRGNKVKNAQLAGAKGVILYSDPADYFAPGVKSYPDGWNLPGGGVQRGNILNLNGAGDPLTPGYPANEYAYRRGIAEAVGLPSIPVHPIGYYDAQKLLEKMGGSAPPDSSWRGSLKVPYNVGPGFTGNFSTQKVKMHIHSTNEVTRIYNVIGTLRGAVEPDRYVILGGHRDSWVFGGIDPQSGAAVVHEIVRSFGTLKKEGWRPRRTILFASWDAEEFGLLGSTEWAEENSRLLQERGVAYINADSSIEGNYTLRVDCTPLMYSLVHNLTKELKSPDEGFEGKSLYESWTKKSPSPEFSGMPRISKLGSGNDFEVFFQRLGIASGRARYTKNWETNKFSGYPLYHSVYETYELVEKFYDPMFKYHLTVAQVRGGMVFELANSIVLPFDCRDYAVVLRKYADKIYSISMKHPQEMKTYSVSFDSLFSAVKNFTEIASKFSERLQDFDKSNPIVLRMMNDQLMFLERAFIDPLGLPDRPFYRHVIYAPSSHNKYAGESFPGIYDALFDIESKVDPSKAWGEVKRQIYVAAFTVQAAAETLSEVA
# Method: In vitro cold screening assays verses I-131 DCIT. LNCaP and PC3 human prostate cancer cells were obtained from American Type Culture Collection, Rockville, MD LNCaP cells were maintained in RPMI-1640 medium supplemented with 10% fetal bovine serum (FBS). PC3 cells were grown in F12K medium supplemented with 10% FBS. Binding of the radiolabeled compound and competition with cold derivatives to LNCaP and PC-3 cells was performed according to the methods of Tang et al. (Tang, H.; Brown, M.; Ye, Y.; Huang, G.; Zhang, Y.; Wang, Y.; Zhai, H.; Chen, X.; Shen, T. Y.; Tenniswood, M., Prostate targeting ligands based on N-acetylated alpha-linked acidic dipeptidase, Biochem. Biophys. Res. Commun. 2003, 307, 8-14) with appropriate modifications. Cells were plated in 12-well plates at approximately 4×10^5 cells/well and incubated for 48 hours in a humidified incubator at 37° C./5% carbon dioxide prior to addition of compound. Each unique SAAC-urea-Glu conjugate was prepared and diluted in serum-free cell culture medium containing 0.5% bovine serum albumin (BSA) in combination with 3 nM I-131 DCIT (known inhibitor). Total binding was determined by incubating I-131 DCIT without test compound. Plates were incubated at room temperature for 1 hour. Cells were removed from the plates by gently pipeting and transferred to eppendorff tubes. Samples were microcentrifuged for 15 seconds at 10K×g. The medium was aspirated and the pellet was washed twice by dispersal in fresh assay medium followed by microcentrifugation. Cell binding of I-131 DCIT was determined by counting the cell pellet in an automated gamma counter. […] The control compounds are depicted below.
# The ability of non-radioactive analogs to compete with ^131I-DCIT for binding to PSMA was tested in the PSMA positive human prostate cancer cell line, LNCaP cells. LNCaP cells (300,000 cells/well) were incubated for 1 hour with 3 nM [^131I]-DCIT in the presence of 1-10,000 nM MIP-1072 in RPMI-1640 medium supplemented with 0.5% bovine serum albumin, then washed and counted in a gamma counter. All documents cited in this specification including patent applications are incorporated by reference in their entirety.
# LnCap cells [4] = assay: Rate of uptake and internalization (acid wash assay) of MIP-1072 in LNCaP cells; assay type: cell-based, human; settings: 100 nM
# Method: In order to confirm the results of the Scatchard analysis of FIG. 7 indicating MIP-1072 internalization into LNCaP cells, the rate of uptake of MIP-1072 in LNCaP cells was monitored. Each well was dosed with 100 nM MIP-1072 (2 uCi/well) at 4° C. and 37° C. Binding to PSMA reached equilibrium after 15 min as evidenced by the plateau in the curve at 4° C. The cells incubated at 37° C. continued to internalize MIP-1072 after equilibrium had been reached.
# The ability of MIP-1072 to internalize in LNCaP cells was confirmed by an acid wash assay (FIG. 19). LNCaP cells were incubated in HBS with 100 nM ^123I-MIP-1072 for 0-2 hours at 4 and 37° C. At the indicated time the media was removed and the cells were incubated in mild acid buffer (50 mM glycine, 150 mM NaCl, pH 3.0) at 4° C. for 5 minutes. After the brief incubation the cells were centrifuged at 20,000×g for 5 minutes. The supernatant and cell pellet were counted in a gamma counter. In order to confirm the results of the saturation binding analysis indicating MIP-1072 internalization into LNCaP cells, we monitored the rate of uptake of MIP-1072 in LNCaP cells. Each well was dosed with 100 nM MIP-1072 (2 uCi/well) at 4° C. and 37° C. Binding to PSMA reached equilibrium after 15 min as evidenced by the plateau in the curve at 4° C. The cells incubated at 37° C. continued to internalize MIP-1072 after equilibrium had been reached. […] (FIG. 19).
# PSMA on LNCaP cells [5] = biological target: T1, PSMA on LNCaP cells; assay: Saturation binding analysis of radiolabeled MIP-1072 in LNCaP cells
# Method: The affinity constant (Kd) of MIP-1072 was determined by saturation binding analysis (FIG. 18). LNCaP cells were incubated for 1 hour with 30-100,000 pM ^131I-MIP-1072 in HBS (50 mM Hepes, pH 7.5, 0.9% sodium chloride) at either 4° C. or 37° C. in the absence or presence of 10 μM unlabeled MIP-1072 (to determine non-specific binding). Cells were then washed and the amount of radioactivity was measured on a gamma counter. Specific binding was calculated as the difference between total binding and nonspecific binding. […] The Bmax, however, was greater at 37° C. than at 4° C.; […] fmol/10^6 cells, respectively, indicating internalization of MIP-1072. The results below are representative of two independent analyses.
# [6] = test system: PC3 (PSMA negative) tumors; assay: Tissue biodistribution of I-131 MIP 1072 in xenograft tumored mice, PC3 tumors; assay type: in vivo; settings: I-131-labeled
# Excerpt: (§5) The lead compound, MIP 1072, was I-131-labeled for tissue distribution studies in mice with both LNCaP (PSMA positive) and PC3 (PSMA negative) tumors implanted. The compound was radiolabeled by the route shown below.
# (§6) A graph depicting the mice distribution is shown below (FIG. 12).
# [7] = Microsome assay (stability in rat liver microsomes); assay type: in vitro ADME; settings: 37° C., 60 min incubation; MIP-1072 50 μM, phenacetin 100 μM
# Method: Pooled male rat liver microsomes (1 mg/mL, BD Biosciences), NADPH regenerating system (1.3 mM NADP, 3.3 mM glucose 6-phosphate and 0.4 U/mL glucose 6-phosphate dehydrogenase, BD Biosciences) and test compound (50 μM MIP-1072, 50 μM DCT, and 100 μM phenacetin) were added to 0.1 M potassium phosphate buffer (pH 7.4) in order to monitor the catastrophic degradation of the test compounds. The mixture was incubated at 37° C. and at the indicated time (0, 15, 60 min) the reaction was stopped by the addition of an equal volume of ice cold methanol (500 μL). The resulting slurry was then centrifuged at 21,000×G for 10 min and the supernatant was collected and injected onto an Agilent LCMS model MSD SL using a 95:5 water:acetonitrile (with 0.1% formic acid) to 40:60 water:acetonitrile (with 0.1% formic acid) gradient and monitoring for the parent ion only in single ion mode. The results, shown in FIGS. 11A and 11B, are expressed as degradation of the parent ion with respect to the 0 min time point.
# The stability of MIP-1072 was assessed using rat liver microsomes. MIP-1072 (50 μM) and Phenacetin (100 μM) were incubated with rat liver microsomes at 37° C. for the indicated time. Phenacetin was used as a control substance that is known to be metabolized. MIP-1072 was not degraded by the rat liver microsomes during the incubation period. […]
# [8] = test system: LNCaP (PSMA positive) tumors; assay: Tissue biodistribution of I-131 MIP 1072 in xenograft tumored mice, LNCaP tumors; assay type: in vivo; settings: I-131-labeled
# Excerpt: as §5, §6
# [9] = LNCaP cells, 3 nM I-131 DCIT, 1 hour, read-out: IC50 (nM), in vitro cell binding data
# Chain of PSMA (LnCap cells) (Q04609 whole entry): as above
compound,measurement,setting,value
"O=C(O)CC[C@H](NC(=O)N[C@@H](Cc1ccc(O)c(I)c1)C(=O)O)C(=O)O [DCIT, N—[N—[(S)-1,3-dicarboxypropyl]carbamoyl]-S-3-iodo-L-tyrosine]",Bmax,PSMA (LnCap cells),254 fmol
same,Kd,PSMA (LnCap cells),264 nM
O=C(O)CC[C@H](NC(=O)N[C@@H](Cc1ccc(O)c([123I])c1)C(=O)O)C(=O)O [I-123 DCIT],specific binding to LnCap cells,LnCap cells [1],bound specifically
same,specific binding to PC3 cells,PC3 cells,not PC3 cells
O=C(O)CC[C@H](NC(=O)N[C@@H](CCCCNCc1ccc([131I])cc1)C(=O)O)C(=O)O [I-131 1072],stability by radio-HPLC,"[2]; 3 days at 37° C. in DMSO, gentisate/ascorbate, PBS pH 7.2, 10% ethanol in saline",remained stable
same,labeling stability (degradation),"[2]; out to 3 days at room temperature in DMSO, 10% ethanol/saline, PBS pH 7.2, 6% ascorbate/3% gentisic acid",no significant degradation
"O=C(O)CC[C@H](NC(=O)N[C@@H](Cc1ccc(O)c(I)c1)C(=O)O)C(=O)O [I-131 DCIT, N—[N—[(S)-1,3-dicarboxypropyl]carbamoyl]-S-3-iodo-L-tyrosine]",specific binding to LnCap cells,LnCap cells [1],bound specifically
same,labeling stability (degradation),[2]; out to 2 days at room temperature,no significant degradation
same,specific binding to PC3 cells,PC3 cells,not PC3 cells
"O=C(O)CC[C@H](NC(=O)N[C@@H](CCCCNCc1ccc(I)cc1)C(=O)O)C(=O)O [MIP 1072, (S, S)-2-{3-[1-Carboxy-5-(4-iodo-benzylamino)-pentyl]-ureido}-pentanedioic]",IC50,"PSMA on LNCaP cells [3]; LnCap cells, dose curves, read-out: IC50 values versus I-131 DCIT",< 50 nM
same,internalization in LNCaP cells,LnCap cells [4]; 4° C. and 37° C.,internalized
same,time at which binding to PSMA reached equilibrium,"LnCap cells [4]; 4° C., LNCaP cells",15 min
same,Bmax,PSMA on LNCaP cells [5]; 4° C.,"1,490 fmoles/10^6 cells"
same,Kd,"PSMA on LNCaP cells [5]; 4° C., nonlinear regression",4.8 nM
same,Bmax,PSMA on LNCaP cells [5]; 37° C.,"4,400 fmol/10^6 cells"
same,Kd,PSMA on LNCaP cells [5]; 37° C.,8.1 nM
same,activity in PC3 (PSMA negative) tumors,[6],very little activity
same,degradation of the parent by rat liver microsomes,[7],not degraded
same,uptake in LNCaP (PSMA positive) tumors,[8],significant uptake
"CCOc1ccc(NC(C)=O)cc1 [phenacetin, reference compound]",degradation of the parent by rat liver microsomes,[7],22%
[Re(CO)3(2-{3-[5-(Bis-pyridin-2-ylmethyl-amino)-1-carboxy-pentyl]-ureido}-pentanedioic acid)][Br] [MIP 1029],competition with I-131 DCIT for binding to LnCap cells,PSMA on LNCaP cells [3],did not compete
"[Re(CO)3{(17R,21S)-11,19-dioxo-1-([…]yridine-2-yl)-2-([…]yridine-2-ylmethyl)-5,8-dioxa-2,12,18,20-tetraazatricosane-17,21,23-tricarboxylic acid}][Br] [MIP-1133]",IC50,PSMA on LNCaP cells [3]; [9],227 nM
"[Re(CO)3{(19R,23S)-13,21-dioxo-2-([…]yridine-2-ylmethyl)-2,14,20,22-tetraazapentacosane-1,19,23,25-tetracarboxylic acid}] [MIP-1109]",IC50,PSMA on LNCaP cells [3]; [9],696 nM
"[Re(CO)3{(35R,39S)-29,37-dioxo-1-([…]yridine-2-yl)-2-([…]yridine-2-ylmethyl)-5,8,11,14,17,20,23,26-octaoxa-2,30,36,38-tetraazahentetracontane-35,39,41-tricarboxylic acid}][Br] [MIP-1132]",IC50,PSMA on LNCaP cells [3]; [9],1750 nM
